Each block holds one molecule with its values, some of them ahead of it.
How the values were obtained:
C57BL/KsJ-db/db mice = assay: Efficacy in genetic models: blood sugar and triglyceride lowering in db/db mice; type: in vivo, mouse
Excerpt: Mutation in colonies of laboratory animals and different sensitivities to dietary regimens have made the development of animal models with non-insulin dependent diabetes and hyperlipidemia associated with obesity and insulin resistance possible. Genetic models such as db/db and ob/ob (Diabetes, (1982) 31(1): 1-6) mice and zucker fa/fa rats have been developed by the various laboratories for understanding the pathophysiology of disease and testing the efficacy of new antidiabetic compounds (Diabetes, (1983) 32: 830-838; Annu. Rep. Sankyo Res. Lab. (1994). 46: 1-57). The homozygous animals, C57 BL/KsJ-db/db mice developed by Jackson Laboratory, US, are obese, hyperglycemic, hyperinsulinemic and insulin resistant (J. Clin. Invest., (1990) 85: 962-967), whereas heterozygous are lean and normoglycemic. In db/db model, mouse progressively develops insulinopenia with age, a feature commonly observed in late stages of human type II diabetes when blood sugar levels are insufficiently controlled. The state of pancreas and its course vary according to the models. Since this model resembles that of type II diabetes mellitus, the compounds of the present invention were tested for blood sugar and triglycerides lowering activities.
Male C57BL/KsJ-db/db mice of 8 to 14 weeks age, having body weight range of 35 to 60 grams, bred at Dr. Reddy's Research Foundation (DRF) animal house, were used in the experiment The mice were provided with standard feed (National Institute of Nutrition (NIN), Hyderabad, India) and acidified water, ad libitum. The animals having more tan 350 mg/dl blood sugar were used for testing. The number of animals in each group was 4.
Test compounds were suspended on 0.25% carboxymethyl cellulose and administered to test group at a dose of 0.1 mg to 30 mg/kg through oral gavage daily for 6 days. The control group received vehicle (dose 10 ml/kg). On 6th day the blood samples were collected one hour after administration of test compounds/vehicle for assessing the biological activity.
The random blood sugar and triglyceride levels were measured by collecting blood (100 μl) through orbital sinus, using heparinised capillary in tubes containing EDTA which was centrifuged to obtain plasma. The plasma glucose and triglyceride levels were measured spectrometrically, by glucose oxidase and glycerol-3-PO4 oxidase/peroxidase enzyme (Dr. Reddy's Lab. Diagnostic Division Kits, Hyderabad, India) methods respectively.
The blood sugar and triglycerides lowering activities of the test compound was calculated according to the formula.
(§1) • 1. Percent reduction in Blood sugar/triglycerides/total cholesterol were calculated according to the formula: [formula] • OC=Zero day control group value • OT=Zero day treated group value • TC=Test day control group value • TT=Test day treated group value • 2. LDL and VLDL cholesterol levels were calculated according to the formula: [formula] [formula]

hPPARγ1 = target: T1, hPPARγ1 (Homo sapiens, UniProt P37231); assay: Determination of hPPARγ activity (GAL4 luciferase reporter transactivation); type: cell-based; conditions: compound at 1 μM; luciferase activity in transfected HEK-293 cells
T1 construct: expressed in transfected cells; host or cells: HEK-293
T1 sequence (P37231 238-503 limits assumed): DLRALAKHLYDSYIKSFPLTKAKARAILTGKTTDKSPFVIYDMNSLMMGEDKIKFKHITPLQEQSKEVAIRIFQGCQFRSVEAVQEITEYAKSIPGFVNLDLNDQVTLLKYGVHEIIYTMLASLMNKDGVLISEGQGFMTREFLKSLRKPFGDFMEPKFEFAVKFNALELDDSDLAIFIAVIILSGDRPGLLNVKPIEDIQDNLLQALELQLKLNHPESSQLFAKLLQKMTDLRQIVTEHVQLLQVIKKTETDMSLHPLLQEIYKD
Protocol: Ligand binding domain of hPPARγ1 was fused to DNA binding domain of Yeast transcription factor GAL4 in eucaryotic expression vector. Using lipofectamine (Gibco BRL, USA) as transfecting reagent HEK-293 cells were transfected with this plasmid and a reporter plasmid harboring the luciferase gene driven by a GAL4 specific promoter. Compound was added at 1 μM concentration after 48 hrs of transfection and incubated overnight. Luciferase activity as a function of drug binding/activation capacity of PPARγ1 was measured using Packard Luclite kit (Packard, USA) in Packard Top Count (Ivan Sadowski, Brendan Bell, Peter Broag and Melvyn Hollis. Gene 1992, 118: 137-141; Guide to Eukaryotic Transfections with Cationic Lipid Reagents. Life Technologies, GIBCO BRL, USA).

hPPARα = target: T2, hPPARα (Homo sapiens, UniProt Q07869); assay: Determination of hPPARα activity (GAL4 luciferase reporter transactivation); type: cell-based; conditions: compound at 50 μM; luciferase activity in transfected HEK-293 cells
T2 construct: expressed in transfected cells; host or cells: HEK-293
T2 sequence (Q07869 239-466 limits assumed): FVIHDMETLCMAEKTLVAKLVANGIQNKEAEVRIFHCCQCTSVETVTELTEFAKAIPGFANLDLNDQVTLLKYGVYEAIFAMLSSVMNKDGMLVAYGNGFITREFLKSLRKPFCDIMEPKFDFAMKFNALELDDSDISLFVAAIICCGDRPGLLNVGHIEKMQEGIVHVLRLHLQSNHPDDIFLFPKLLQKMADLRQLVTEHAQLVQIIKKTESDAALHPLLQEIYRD
Protocol: Ligand binding domain of hPPARα was fused to DNA binding domain of Yeast transcription factor GAL4 in eucaryotic expression vector. Using superfect (Qiagen, Germany) as transfecting reagent HEK-293 cells were transfected with this plasmid and a reporter plasmid harboring the luciferase gene driven by a GAL4 specific promoter. Compound was added at different concentrations after 42 hrs of transfection and incubated overnight. Luciferase activity as a function of compound binding/activation capacity of PPARα was measured using Packard Luclite kit (Packard, USA) in Top Count (Ivan Sadowski, Brendan Bell, Peter Broag and Melvyn Hollis. Gene 1992, 118: 137-141; Superfect Transfection Reagent Handbook. February 1997. Qiagen, Germany).

Swiss albino mice = assay: Plasma triglyceride and total cholesterol lowering activity in Swiss albino mice and Guinea pigs; type: in vivo, mouse; conditions: 6 days
Protocol: Male Swiss albino mice (SAM) and male Guinea pigs were obtained from NIN and housed in DRF animal house. All these animals were maintained under 12 hour light and dark cycle at 25±1° C. Animals were given standard laboratory chow (NIN, Hyderabad, India) and water, ad libitum. SAM of 20-25 g body weight range and Guinea pigs of 500-700 g body weight range were used (Oliver, P., Plancke, M. O., Marzin, D., Clavey, V., Sauzieres, J and Fruchart, J. C. Effects of fenofibrate, gemfibrozil and nicotinic acid on plasma lipoprotein levels in normal and hyperlipidemic mice. Atherosclerosis. 1988. 70: 107-114).
The test compounds were administered orally to Swiss albino mice at 0.3 to 30 mg/kg/day dose for 6 days. Control mice were treated with vehicle (0.25% Carboxymethylcellulose; dose 10 ml/kg). The test compounds were administered orally to Guinea pigs at […] dose for 6 days. Control animals were treated with vehicle (0.25% Carboxymethylcellulose; dose 5 ml/kg).
The blood samples were collected in fed state 1 hour after drug administration on 0 and 6 day of treatment. The blood was collected from the retro-orbital sinus through heparinised capillary in EDTA containing tubes. After centrifugation, plasma sample was separated for triglyceride and total cholesterol (Wieland, O. Methods of Enzymatic analysis. Bergermeyer, H. O., Ed., 1963. 211-214; Trinder, P. Ann. Clin. Biochem 1969, 6: 24-27). Measurement of plasma triglyceride, total cholesterol and HDL were done using commercial kits (Dr. Reddy's Diagnostic Division, Hyderabad, India).
as §1

[1] = 3 mg/kg oral gavage daily for 6 days
[2] = 10 mg/kg oral gavage daily for 6 days

SMILES: CCCc1nn(C)c2c(OCCOc3ccc(CC(OCC)C(=O)OCC)cc3)nc(C)nc12 (stereo in doubt) [Example 5, Ethyl 2(S)-3-[4-{2-1,5-dimethyl-3-propyl-1H-pyrazolo[4,3-dipyrimidin-7-yloxy)ethoxy}phenyl]-2-ethoxypropanoate]
Reduction in Blood Glucose Level (%) (C57BL/KsJ-db/db mice; [1]): 61%
Triglyceride Lowering (%) (C57BL/KsJ-db/db mice; [1]): 51%

PPARγ (hPPARγ1): 1.4
PPARα (hPPARα): 2.7
SMILES: CCCCCCCN(C(=O)COc1nc(CC)nc2c(CCC)nn(C)c12)c1ccc(SC(CCC)C(=O)O)cc1 (stereo not shown) [Example 2, 2-[4-(5-Ethyl-1-methyl-3-propyl-1H-pyrazolo[4,3-d]pyrimidin-7-yloxymethyl-(heptyl)carboxamido)phenylsulfanyl]pentanoic Acid]

SMILES: CCCc1nn(C)c2c(OCCOc3ccc(C[C@H](OCC)C(=O)OC)cc3)nc(CC)nc12 [Example 4a, Methyl 2(S)-2-ethoxy-3-[4-{2-(5-ethyl-1-methyl-3-propyl-1H-pyrazolo [4,3-d]-pyrimidin-7-yloxy)ethoxy}phenyl]propanoate]
Reduction in Blood Glucose Level (%) (C57BL/KsJ-db/db mice; [2]): 48%
Triglyceride Lowering (%) (C57BL/KsJ-db/db mice; [2]): 69%

PPARγ (hPPARγ1): 6.9
PPARα (hPPARα): 5.1
SMILES: CCCc1nn(C)c2c(OCCOc3ccc(C[C@H](OCC)C(=O)O)cc3)nc(CC)nc12 [Example 4b, 2(S)-2-Ethoxy-3-[4-{2-(5-ethyl-1-methyl-3-propyl-1H-pyrazolo[4,3-d]pyrimidin-7-yloxy)ethoxy}phenyl]propanoic Acid]
Reduction in Blood Glucose Level (%) (C57BL/KsJ-db/db mice; [2]): 56%
Triglyceride Lowering (%) (C57BL/KsJ-db/db mice; [2]): 17%

SMILES: CCCc1nn(C)c2c(OCCOc3ccc(CC(OCC)C(=O)OCC)cc3)nc(-c3ccccc3)nc12 (stereo not shown) [Example 7, Ethyl 2-ethoxy-3-[4-{2-(1-methyl-5-phenyl-3-propyl-1H-pyrazolo-[4,3-d]-pyrimidin-7-yloxy)ethoxy}phenyl]propanoate]
Triglyceride Lowering (%) (Swiss albino mice; 3 mg/kg orally): 43%

SMILES: CCCc1nn(C)c2c(OCCOc3ccc(CC(OCC)C(=O)O)cc3)nc(-c3ccccc3)nc12 (stereo not shown) [Example 8, 3-[4-{2-(1-Methyl-5-phenyl-3-propyl-1H-pyrazolo-14,3-d]pyrimidin-7-yloxy)ethoxy}phenyl-2-ethoxypropanoic Acid]
Triglyceride Lowering (%) (Swiss albino mice; 10 mg/kg orally): 61%

SMILES: CCCc1nn(C)c2c(OCCOc3ccc(C[C@H](OCC)C(=O)O)cc3)nc(C3CC3)nc12 [Example 10, (2S)-3-[4-{2-(5-Cyclopropyl-1-methyl-3-propyl-1H-pyrazolo[4,3-d]pyrimidin-7-yloxy)ethoxy}phenyl]-2-ethoxypropanoic Acid]
Triglyceride Lowering (%) (Swiss albino mice; 3 mg/kg orally): 42%

Reference: patent publication US20050096331A1, “Novel compounds and their use in medicine process for their preparation and pharmaceutical compositions containing them” (priority 2001, published 2005)
